Test results taken from US11046729B2, “Dipeptide analogs as TGF-beta inhibitors” (SOUTHERN RESEARCH INSTITUTE, priority 2017, dated 2021).
Values after ≈ are worked out from the molar mass of the structure shown. Values joined by “and” are separate entries in the source; they are usually repeats but may differ in a detail not shown here. Identical values can stand only once. Like-named read-outs stand apart in the source and are kept apart here. Values belong to the compound of their own block, whether it stands above or below them. Non-standard residues stand in square brackets, D forms with d. Residues, ends and D or L forms follow the SMILES beside them. *: point of attachment. Orn = NCCC[C@H](N)C(=O)O; Ac5c = NC1(C(=O)O)CCCC1; Aib = CC(C)(N)C(=O)O; Butyryl = CCCC(=O)*

Columns and labels:
[1] = target: TSP1 (activation of recombinant latent TGF-β1) (Homo sapiens, UniProt P07996); assay: Latent TGF-β activation by TSP1 in vitro (Quantikine ELISA for TGF-β1); type: biochemical; conditions: TSP1 155 nM
Description: Previous studies have illustrated the ability of tripeptide analogs such as compound no. 93 to block latent TGF-β activation by TSP1 in vitro (see FIG. 5 and FIG. 6). Briefly, TSP1 (155 nM, 20 μg/ml) was incubated for 10 min at 37° C. with 93, LSKL (SEQ ID NO:1), or control SLLK (SEQ ID NO:2) peptide. The mixture was then incubated with […] recombinant latent TGF-β1 for 20 min at 37° C. TGF-β1 activity was measured using an R&D systems Quantikine ELISA for TGF-β1.

[2] = target: T1, purified human platelet TSP-1 (activation of recombinant latent TGF-β1) (Homo sapiens, UniProt P07996); assay: ELISA-based screening assay: TSP-1 activation of recombinant latent TGF-β1; type: biochemical; conditions: for % Inhibition at 50 pM: Table 2, 5e-05 µM
T1 construct: purified human platelet TSP-1 was incubated with compounds; from tissue; host or cells: human platelets
Description: For initial screening, an ELISA-based screening assay was used in which purified human platelet TSP-1 was incubated with compounds and then incubated with recombinant latent TGF-β1 (purchased from R&D Systems). Activity is measured in a commercially available ELISA which detects only active TGF-β (R &D Systems). Activity in the presence of compounds is compared to activity in TSP-1+latent TGF-β samples without inhibitory compounds (Lu et al. (2016) Am J Pathol 186:678-690).

MSCs = assay: Osteoblast differentiation by MSCs under osteogenic conditions; type: cell-based; conditions: osteogenic media, 20 days; TGF-β 5 ng/mL, TSP1 10 nM, LSKL 25 μM
Description: Referring to FIG. 1A, MSCs were grown to confluence in basal (control) media. Cells were treated with control growth media, osteogenic media, or osteogenic media with TGF-β (5 ng/mL) or stripped TSP1 (10 nM), TSP1+LSKL (SEQ ID NO:1) (25 μM), TSP1+SLLK (SEQ ID NO:2) (25 μM control peptide), or TSP1+anti-TGF-β (5 μg/mL). Cultures were fed daily for 20 days. Alkaline phosphatase staining is representative of triplicate wells.
Referring to FIG. 1B, cells were treated every 2 days for 20 days with MSC growth media (control) or osteogenic media with TGF-β (5 ng/mL) or TSP1 (10 nM) daily treatment with 25 μM LSKL (SEQ ID NO:1) or SLLK (SEQ ID NO:2) peptides. RNA isolated from cells was used for RT-PCR analysis of Runx2 expression. Samples were run in duplicate and each experimental treatment in triplicate.

CAG human myeloma cells = assay: SCID-tibia MM model; type: in vivo, SCID mice
Description: Referring to FIG. 2A and FIG. 2B, CAG human myeloma cells were injected into the intratibial marrow space of SCID mice. After 2 weeks, tumors were imaged by bioluminescence and serum 1 g kappa levels measured. Mice were randomized to equalize 1 g kappa levels. Osmotic pumps were implanted subcutaneously to deliver saline or LSKL peptide (SEQ ID NO:1) (30 mg/kg/day) (n=10/group). Tumors were imaged and serum 1 g kappa levels measured at 2 and 4 weeks of treatment. Data are means SEM. Bioluminescence; *p=0.019 ANOVA, serum kappa; p=0.037, t-test.
Referring to FIG. 3A-C, at 4 weeks of treatment, tibiae from mice injected with CAG MM cells were fixed and stained with antibody to phosphor-Smad 2. Left panels are from 2 different saline treated mice and the right panels are from LSKL (SEQ ID NO:1)-treated mice. Pixels of brown staining were quantified in 4 fields per animal. 5-6 animals per group were analyzed. Data are the percent area exceeding the threshold for positive staining (FIG. 3A). […] P=0.004.

CAG MM cells = assay: TGF-β activity in CAG MM cells (phospho-Smad 2 immunoblot); type: cell-based, human; conditions: 30 nM TSP1, 6 hrs
Description: Referring to FIG. 4A, CAG MM cells were incubated with 30 nM TSP1 for 6 hrs LSKL (SEQ ID NO:1) or SLLK (SEQ ID NO:2). Cell lysates were immunoblotted for phosphor-Smad 2. Blots were stripped and reprobed for total Smad 2/3 and GAPDH. Results are normalized to GAPDH (untreated controls=1). LSKL (SEQ ID NO:1) reduces TSP1 induced treatment or luciferase activity in cells treated with active TGF-β (not shown).

CAG-heparanase MM cells = assay: PAI-1 promoter luciferase reporter assay of conditioned media of CAG-heparanase MM cells treated with TSP1; type: cell-based, human; conditions: 67 nM TSP1, conditioned media
Description: Referring to FIG. 4B, CAG-heparanase MM cells were treated with 67 nM TSP1 and conditioned media were assessed for TGF-β activity using PAI-1 promoter luciferase reporter assay. There is ˜[…] TGF-β in the added TSP1 and LSKL (SEQ ID NO:1) blocks 80% of the CAG-heparanase MM cell generated TGF-β activity.

[3] = cited from earlier work
[4] = 30 mg/kg i.p., 3 times weekly, 15 weeks; cited from earlier work
[5] = target: recombinant latent TGF-β1 (purchased from R&D Systems) (UniProt P01137); assay: cell-based or functional assay
[6] = test system: TSP-1 activation of latent TGF-β; assay: cell-based assay of TSP1 activation of latent TGF-β (Table 3; Secondary Assay of Table 1); parameters: species or system human
Description: To specifically assess activity of compounds in liver cell specific assays, two different assays were used. In the first, human hepatic stellate cells were incubated overnight in low serum media to condition the media with secreted latent TGF-β. Purified TSP1 either preincubated with compounds or not will be added to cultures and then conditioned media harvested to assess TGF-β biological activity using the R&D Systems ELISA as above. Hepatic stellate cells will be purchased from commercial sources. Although hepatic stellate cells are the primary drivers of liver fibrosis, conditions which drive liver fibrosis can induce hepatocyte TSP-1 expression which can then have paracrine effects on controlling TGF-β activation in hepatic stellate cells. Furthermore, TGF-β can negatively impact hepatocyte regeneration following injury. Therefore, the ability of compounds to blockTSP-1 activation of latent TGF-β will also be assessed in cultured primary human hepatocytes following the protocol described for the hepatic stellate cells. Similar approaches have successfully been used to screen compounds which inhibit human myeloma cell derived latent TGF-β activation by TSP-1 (Lu et al. (2016) Am J Pathol 186:678-690).

Solubility = type: physicochemical
Log D = type: physicochemical
[7] = Rat liver microsomal stability; type: in vitro ADME; conditions: rat liver microsomes; read-out: Rat Liver Microsomal Stability t1/2
[8] = Human liver microsomal stability; type: in vitro ADME; conditions: human liver microsomes; read-out: Human Liver Microsomal Stability t1/2
[9] = Pharmacokinetics (% F, T1/2, Tmax); conditions: in vivo
[10] = ELISA-based assay, Table 2, read-out: % Inhibition at 50 pM
[11] = Conc. of compound 1 pM (last column: 30 nM)
[12] = Conc. of compound 50 pM (last column: 300 nM)
[13] = Conc. of compound 100 pM (last column: 3 μM)

T1 sequence (P07996 19-1170): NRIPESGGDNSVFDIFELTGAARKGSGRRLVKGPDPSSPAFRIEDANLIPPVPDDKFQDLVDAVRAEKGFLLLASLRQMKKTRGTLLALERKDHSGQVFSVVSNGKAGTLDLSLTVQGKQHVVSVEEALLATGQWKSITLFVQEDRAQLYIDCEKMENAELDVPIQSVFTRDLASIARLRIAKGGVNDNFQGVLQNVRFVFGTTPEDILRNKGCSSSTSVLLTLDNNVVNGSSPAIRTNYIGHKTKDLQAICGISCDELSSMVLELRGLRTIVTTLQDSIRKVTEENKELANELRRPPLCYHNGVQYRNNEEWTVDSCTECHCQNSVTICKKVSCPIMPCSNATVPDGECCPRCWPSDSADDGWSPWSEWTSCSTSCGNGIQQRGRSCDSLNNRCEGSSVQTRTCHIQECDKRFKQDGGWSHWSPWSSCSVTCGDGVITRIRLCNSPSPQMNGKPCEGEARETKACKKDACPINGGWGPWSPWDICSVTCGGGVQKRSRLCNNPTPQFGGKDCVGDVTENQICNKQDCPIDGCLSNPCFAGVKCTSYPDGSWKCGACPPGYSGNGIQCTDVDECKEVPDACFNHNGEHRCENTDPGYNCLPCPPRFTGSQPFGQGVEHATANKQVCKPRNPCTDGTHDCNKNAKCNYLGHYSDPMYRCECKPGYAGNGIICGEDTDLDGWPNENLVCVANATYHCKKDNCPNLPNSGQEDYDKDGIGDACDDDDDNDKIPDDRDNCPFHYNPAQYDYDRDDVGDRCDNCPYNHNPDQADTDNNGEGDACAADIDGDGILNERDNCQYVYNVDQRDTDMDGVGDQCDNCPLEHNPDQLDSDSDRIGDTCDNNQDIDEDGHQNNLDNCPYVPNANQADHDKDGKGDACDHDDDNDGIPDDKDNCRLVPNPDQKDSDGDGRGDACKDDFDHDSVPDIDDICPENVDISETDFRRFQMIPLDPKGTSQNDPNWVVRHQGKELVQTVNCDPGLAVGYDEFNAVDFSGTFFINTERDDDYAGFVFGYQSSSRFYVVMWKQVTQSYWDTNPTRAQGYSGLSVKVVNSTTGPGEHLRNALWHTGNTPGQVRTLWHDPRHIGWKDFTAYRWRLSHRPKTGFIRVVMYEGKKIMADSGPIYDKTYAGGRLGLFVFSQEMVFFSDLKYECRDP
Chain of recombinant latent TGF-β1 (purchased from R&D Systems) (P01137 30-390 limits assumed): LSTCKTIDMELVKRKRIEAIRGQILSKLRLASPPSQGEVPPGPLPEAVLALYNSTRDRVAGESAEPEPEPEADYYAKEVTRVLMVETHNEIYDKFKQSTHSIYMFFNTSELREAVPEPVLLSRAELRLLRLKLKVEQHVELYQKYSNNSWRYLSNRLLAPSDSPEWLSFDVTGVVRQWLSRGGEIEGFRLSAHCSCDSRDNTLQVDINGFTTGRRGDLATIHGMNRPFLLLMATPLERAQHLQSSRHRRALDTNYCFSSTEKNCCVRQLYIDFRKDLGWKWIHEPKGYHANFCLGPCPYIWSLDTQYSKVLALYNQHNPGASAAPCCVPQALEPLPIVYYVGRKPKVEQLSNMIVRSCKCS
Chain of TSP1 (activation of recombinant latent TGF-β1) (P07996 19-1170): as the sequence (P07996 19-1170) above

Compound: CC(=O)N[C@@H](CC(C)C)C(=O)N[C@@H](CCCN)C(N)=O [Compound 61, (S)-2-acetamido-N—((S)-1,5-diamino-1-oxopentan-2-yl)-4-methylpentanamide] (Ac-Leu-[Orn]-NH2)
- % Inhibition at 50 pM ([2]; ELISA-based assay): 63% and 99%

Compound: CC(=O)N[C@@H](CCCN)C(=O)Nc1cc(C)c[nH]c1=O [Compound 30, (S)-2-acetamido-5-amino-N-(5-methyl-2-oxo-1,2-dihydropyridin-3-yl)pentanamide]
- inhibition at 50 pM [2, 10]: 50%

Compound: Thrombospondin 1 (TSP1), purified human platelet TSP-1 (from UniProt P07996 19-1170)
- Conc. of Active TGF-β (pM), ELISA which detects only active TGF-β [5]: 4.9 pM

Compound: Thrombospondin 1 [TSP1]
- osteoblast differentiation by MSCs (alkaline phosphatase staining, Runx2 expression) (MSCs): Decrease Osteoblast Differentiation
- TGF-β activity in CAG MM cells (phospho-Smad 2) (CAG MM cells): Induces TGF-B Activity

Compound: CC(=O)N[C@@H](CCCN)C(=O)NCC(N)=O [Compound 82, (S)-2-acetamido-5-amino-N-(2-amino-2-oxoethyl)pentanamide] (Ac-[Orn]-Gly-NH2)
- inhibition at 50 pM [2, 10]: 100%
- % Inhibition [6, 11]: 17%
- Conc. of Active TGF-β (pM) [6, 11]: 4.2 pM
- % Inhibition [6, 12]: 80%
- Conc. of Active TGF-β (pM) [6, 12]: 0.79 pM
- % Inhibition [6, 13]: 100%
- Conc. of Active TGF-β (pM) [6, 13]: 0 pM

Compound: CC(=O)N[C@@H](CCCN)C(=O)NC(C)(C)C(N)=O [Compound 8, (S)-2-acetamido-5-amino-N-(1-amino-2-methyl-1-oxopropan-2-yl)pentanamide] (Ac-[Orn]-[Aib]-NH2)
- inhibition at 50 pM [2, 10]: 100%
- inhibition at 50 pM ([2]; read-out: Primary Assay (% Inhibition at 50 pM)): 79%
- % Inhibition [6, 11]: 65%
- Conc. of Active TGF-β (pM) [6, 11]: 2.3 pM
- % Inhibition [6, 12]: 79%
- Conc. of Active TGF-β (pM) [6, 12]: 0.81 pM
- % Inhibition [6, 13]: 80%
- Conc. of Active TGF-β (pM) [6, 13]: 0.78 pM
- inhibition at 0.3 µM ([6]; Homo sapiens, read-out: Secondary Assay: % Inhibition at 300 nM): 92%
- Solubility (Solubility): 4.5 µM (≈ 1.16 µg/mL)
- logD (Log D): 1
- half-life [7]: 170 min
- half-life [8]: 300 min
- Tmax [9]: 30 min
- bioavailability [9]: 5%
- half-life ([9]; iv): 114 min

More lines, main results first:

- latent TGF-β activation by TSP1 in vitro (TGF-β1 activity vs TSP1+latent TGF-β) [1]: not significant
Compound: SLLK

- osteoblast differentiation by MSCs (alkaline phosphatase staining, Runx2 expression) (MSCs): Increases Osteoblast Differentiation
Compound: LSKL
- MM tumor burden (bioluminescence, serum Ig kappa) (CAG human myeloma cells; 30 mg/kg/day by subcutaneous osmotic pump, 2 and 4 weeks of treatment): Reduces Mm Tumor Burden
- phospho-Smad 2 staining in the bone marrow (CAG human myeloma cells; 4 weeks of treatment, tibiae): Reduces Phospho-Smad 2
- TGF-β activity in CAG MM cells (phospho-Smad 2) (CAG MM cells): Reduces TGF-B Activity
- block of CAG-heparanase MM cell generated TGF-β activity (CAG-heparanase MM cells): 80%
- plasma stability half-life [3]: 2.1 min
- necropsy findings after treatment [4]: no inflammation, no tumors in all major organs, and no impairment of wound healing

- inhibition at 50 pM [2, 10]: 30%
Compound: CC(C)C[C@H](NC(=O)[C@H](CCCN)NC(=O)C1CCCC1)C(N)=O [Compound 37, N—((S)-5-amino-1-(((S)-1-amino-4-methyl-1-oxopentan-2-yl)amino)-1-oxopentan-2-yl)cyclopentanecarboxamide]

- % Inhibition at 50 pM ([2]; ELISA-based assay): 59% and 85%
Compound: CCCC(=O)N[C@@H](CCCN)C(=O)N[C@@H](CC(C)C)C(N)=O [Compound 63, (S)-5-amino-N—((S)-1-amino-4-methyl-1-oxopentan-2-yl)-2-butyramidopentanamide] (Butyryl-[Orn]-Leu-NH2)
- % Inhibition [6, 11]: 67%
- Conc. of Active TGF-β (pM) [6, 11]: 2.2 pM
- % Inhibition [6, 12]: 82%
- Conc. of Active TGF-β (pM) [6, 12]: 0.7 pM
- % Inhibition [6, 13]: 100%
- Conc. of Active TGF-β (pM) [6, 13]: 0 pM

- osteoblast differentiation by MSCs (alkaline phosphatase staining, Runx2 expression) (MSCs): Decrease Osteoblast Differentiation
Compound: TGF-β

- inhibition at 50 pM [2, 10]: 35%
Compound: CC(=O)N[C@@H](CCCN)C(=O)NC1(C(N)=O)CCCC1 [Compound 13, (S)-1-(2-Acetamido-5-aminopentanamido)cyclopentanecarboxamide] (Ac-[Orn]-[Ac5c]-NH2)
